Results reported in PubChem BioAssay (NCI).
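These data come from cells grown in 96-well plates and exposed to compound for 48 hours at five concentrations. Here, GI50 denotes the concentration required for 50% inhibition of growth. The concentration for full growth arrest is given as TGI.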

Tests used:
Assay in all cases: inhibition of tumour cell growth, NCI panel, 48 h
[1] = tested on: RXF-631 renal
[2] = tested on: KM20L2 colon
[3] = tested on: DLD-1 colon
[4] = tested on: M19-MEL melanoma
[5] = tested on: LXFL 529 NSCLC
[6] = tested on: HOP-18 NSCLC
[7] = tested on: SNB-78 CNS
[8] = tested on: XF 498 CNS
[9] = tested on: MDA-N

| Compound | TGI [1] [µM] | TGI [2] [µM] | TGI [3] [µM] | TGI [4] [µM] | TGI [5] [µM] | TGI [6] [µM] | TGI [7] [µM] | TGI [8] [µM] | also measured |
| --- | --- | --- | --- | --- | --- | --- | --- | --- | --- |
| COc1ccc(/C=C2\CCC(C)(CN(C)C)C2=O)cc1OC (stereo unspecified) | > 100 | > 100 | > 100 | > 100 | > 100 | > 100 | > 100 |  |  |
| O=C(CC1SC(=Nc2ccccc2Cl)NC1=O)Nc1ccc(Cl)cc1Cl (stereo unspecified) | > 100 | > 100 | > 100 | > 100 | > 100 | > 100 | > 100 | > 100 |  |
| Cc1ccc(NC(=O)CC2C(=O)Nc3ccccc3S2(=O)=O)c(C)c1 (stereo unspecified) |  | 26.9 | 43.1 |  | 41 |  | 56 | 34.8 |  |
| O=c1[nH]cc(F)c(=O)n1C1OC(CO)C(O)C1O (stereo unspecified) |  | > 100 | > 100 |  | > 100 | > 100 | > 100 | > 100 |  |
| O=C(O)/C=C/c1nc2ccccc2c(=O)o1 |  | > 100 | > 100 | > 100 | > 100 | > 100 | > 100 |  |  |
| NC(=O)NNC(=O)NC12CC3CC(CC(C3)C1)C2 |  | > 100 | > 100 | > 100 | > 100 | > 100 | > 100 | > 100 |  |
| NC(=O)c1csc(C2OC(COP(=O)(O)CP(=O)(O)OCC3OC(n4cnc5c(N)ncnc54)C(O)C3O)C(O)C2O)n1 (stereo unspecified) | > 100 | > 100 | > 100 | > 100 | > 100 | > 100 | > 100 | > 100 |  |
| O=S(=O)(c1cccc(N=C=S)c1)c1cccc(N=C=S)c1 |  | > 100 | 40.7 |  | 28.5 |  | 63.5 |  |  |
| Cc1cc(C)nc(NS(=O)(=O)c2ccc(Nc3c4ccccc4nc4c(C(=O)Nc5ccc(S(=O)(=O)N=C(N)N)cc5)cccc34)cc2)n1 | > 100 | > 100 | > 100 | > 100 |  | > 100 | > 100 |  |  |
| O=C1Nc2ccccc2N=CC1NC(=O)C(c1ccccc1)c1ccccc1 (stereo unspecified) | > 100 | > 100 | > 100 | > 100 | > 100 | > 100 | > 100 |  |  |
| CC12CCC(=O)N1c1ccc([N+](=O)[O-])cc1N2 (stereo unspecified) |  | > 100 | > 100 | > 100 | > 100 | > 100 | > 100 |  |  |
| COc1ccc(CCC2c3cc(OC)c(OC)cc3CCN2C)cc1OC (stereo unspecified) |  | > 100 | > 100 | > 100 | > 100 | > 100 | > 100 |  |  |
| O=S(=O)(/C=C/C(=C/c1ccccc1)S(=O)(=O)c1ccccc1)c1ccccc1 | 2.31 |  |  |  | 3.19 |  |  | 3.09 |  |
| C[CH2][Sn]([CH2]C)([O]C(=O)c1ccccc1OC)[O][Sn]([CH2]C)([CH2]C)[O]C(=O)c1ccccc1OC |  | > 100 | > 100 | > 100 | 28.5 | > 100 | > 100 | > 100 | GI50 [2]: > 100 µM; GI50 [8]: > 100 µM; GI50 [3]: 50.2 µM; GI50 [4]: > 100 µM; GI50 [5]: 15.1 µM; GI50 [6]: > 100 µM; GI50 [7]: 63.4 µM |
| Cc1cc[n+]2c(c1)-c1cc(C)cc[n+]1CC2 |  |  |  |  |  |  |  |  | TGI [9]: > 100 µM |
| O=C(O)c1cccc(C(=O)O)c1S(=O)Cc1ccccc1 (stereo unspecified) |  |  |  |  |  |  |  |  | TGI [9]: > 100 µM |
| Cc1ccc(S(=O)(=O)N/N=C(/CC(=O)c2c(C)n([O-])c3ccccc3[n+]2=O)C(=O)Nc2ccccc2C)cc1 |  | > 100 | > 100 | > 100 | > 100 | > 100 | > 100 |  |  |

| Compound | TGI [1] [µM] | TGI [2] [µM] | TGI [3] [µM] | TGI [4] [µM] | TGI [5] [µM] | TGI [6] [µM] | TGI [7] [µM] | TGI [8] [µM] | also measured |
| --- | --- | --- | --- | --- | --- | --- | --- | --- | --- |
| CC1(C)CC(=O)C2=C(C1)OC(N)=C(c1nc(-c3ccccc3)cs1)C2c1ccc(Br)cc1 (stereo unspecified) |  |  |  |  |  |  |  |  | GI50 [9]: 74.3 µg/mL; TGI [9]: > 150 µg/mL |
| COCOCC/C=C/C=O |  | > 100 | > 100 |  | > 100 | > 100 | > 100 | > 100 |  |
| O=C(O)Cc1cccnc1 |  |  |  |  |  |  |  |  | TGI [9]: > 100 µM |
| CC(=O)OCCOCNC(=S)N/N=C/c1cc(Br)cs1 | > 100 | > 100 | > 100 | > 100 | > 100 | > 100 | > 100 | > 100 |  |
| O=C(O)CCC(=O)c1ccc2sc3ccccc3c2c1 |  |  |  |  |  |  |  |  | TGI [9]: > 100 µM |
| O=C(c1nc2ccccc2[nH]c1=O)C(O)c1ccccc1 (stereo unspecified) |  | > 100 | > 100 | > 100 | > 100 |  | > 100 |  |  |
| CCC1(O)C(=O)OCc2c1cc1n(c2=O)Cc2cc3c(NC(=O)CN)cccc3nc2-1 (stereo unspecified) |  |  | > 100 | 14.1 | > 75 | > 24.3 | > 100 | 25.4 | GI50 [2]: 1.77 µM; GI50 [8]: 2.24 µM; GI50 [3]: 11.2 µM; GI50 [4]: 1.38 µM; GI50 [5]: 5.3 µM; GI50 [6]: 1.02 µM; GI50 [9]: 4.94 µM; TGI [9]: > 55.8 µM; GI50 [7]: 8.13 µM |
| Cc1ccc(C)c(N2C(=O)C(=O)C(c3nc4ccccc4s3)/C(=N/NC(=O)NN)C2=O)c1 (stereo unspecified) | > 100 | > 100 | > 100 | > 100 | > 100 | > 100 | > 100 | > 100 |  |
| OCCNC1c2cc(Cl)ccc2-c2c(Cl)cc(Cl)cc21 (stereo unspecified) |  |  |  |  |  |  |  |  | TGI [9]: > 100 µM |
| C=C1CCC2[C@@H](CCC3[C@]2(C)CCC[C@]3(C)C(=O)OC)C1CC=O (stereo partly specified) | 37.2 | 35.7 | 42.9 | 33.8 | 30.1 | 29 | 34.1 | 28.6 | GI50 [1]: 20.9 µM |
| C[N+](C)(C)CC1CCCC1=O (stereo unspecified) | 32.1 | 7.79 | 3.15 | 5.52 | 2.57 | 3.3 | 9.86 | 3.87 | TGI [9]: 3.21 µM |
| COc1ccc(-c2cc(C(=O)Nc3ccc(C)c(C)c3)nc(NC#N)n2)cc1 |  | > 100 | > 100 | > 100 | > 100 | > 100 | > 100 | > 100 |  |
| CC1(c2ccccc2Cl)C(C#N)C(=O)NC(=O)C1C#N (stereo unspecified) |  | > 100 | > 100 | > 100 | > 100 |  | > 100 |  |  |
| COCCNC(=O)C1C(=O)C(=O)N(CCOC)C1=O (stereo unspecified) | > 100 | > 100 | > 100 | > 100 | > 100 | > 100 | > 100 |  |  |
| Cc1nc(C(=O)O)c2ccccc2n1 |  | > 100 | > 100 |  | > 100 |  | > 100 |  |  |
| CCCCC1(C)C=C/C(=C2/C(=O)O/C(=C\C(=O)O)C2=O)O1 (stereo unspecified) | > 100 | > 100 |  | > 100 | > 100 | > 100 | > 100 | > 100 |  |
